Test results from PubChem BioAssay (NCI).
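Cultured in 96-well plates, cells were exposed to test compound for 48 hours across five concentrations. Abbreviation: GI50, concentration required for 50% inhibition of growth. TGI: concentration producing complete growth inhibition.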

How the values were obtained:
Assay in all cases: NCI anticancer screen, dose series, 48 h
HOP-62 NSCLC = system: HOP-62 NSCLC
SNB-19 CNS = system: SNB-19 CNS
SF-539 CNS = system: SF-539 CNS
SK-MEL-5 melanoma = system: SK-MEL-5 melanoma
UACC-62 melanoma = system: UACC-62 melanoma
LOX IMVI melanoma = system: LOX IMVI melanoma
A549 NSCLC = system: A549 NSCLC
A498 renal = system: A498 renal
UO-31 renal = system: UO-31 renal
NCI/ADR-RES ovarian = system: NCI/ADR-RES ovarian

Row | SMILES | TGI (HOP-62 NSCLC) | TGI (SNB-19 CNS) | TGI (SF-539 CNS) | TGI (SK-MEL-5 melanoma) | TGI (UACC-62 melanoma) | TGI (LOX IMVI melanoma) | TGI (A549 NSCLC) | TGI (A498 renal) | TGI (UO-31 renal) | GI50 (HOP-62 NSCLC) | GI50 (SNB-19 CNS) | GI50 (SK-MEL-5 melanoma) | GI50 (UACC-62 melanoma) | GI50 (NCI/ADR-RES ovarian) | TGI (NCI/ADR-RES ovarian) | GI50 (LOX IMVI melanoma) | GI50 (A549 NSCLC) | GI50 (A498 renal) | GI50 (UO-31 renal) | GI50 (SF-539 CNS)
1 | O=c1[nH]c(=O)n(C2CC(O)C(CO)O2)cc1COCC(F)(F)F (stereo unspecified) | > 100 µM | > 100 µM | > 100 µM | > 100 µM | > 100 µM | > 100 µM | > 100 µM | > 100 µM | > 100 µM | – | – | – | – | – | – | – | – | – | – | –
2 | CCOC(=O)C#Cc1c(C(=O)OCC)nnn1[C@@H]1O[C@H](CO)[C@H]2OC3(CCCCC3)O[C@H]21 | 33.7 µM | 40.5 µM | – | 26.6 µM | 4.55 µM | 2.83 µM | 35.8 µM | 31.8 µM | 3.28 µM | 17.7 µM | 18.3 µM | 13.7 µM | 2.02 µM | 7.27 µM | 29.8 µM | 1.31 µM | 19.9 µM | 17.6 µM | 1.67 µM | –
3 | COC(=O)/C(=C/c1ccc(OC)cc1)C(C(=O)O)=C1CCCCC1 | > 100 µM | > 100 µM | > 100 µM | > 100 µM | > 100 µM | > 100 µM | > 100 µM | > 100 µM | > 100 µM | – | – | – | – | – | – | – | – | – | – | –
4 | O=C1C=C(Nc2ccc(S(=O)(=O)Nc3ncccn3)cc2)c2ccccc2C1=O | 54.6 µM | 90.2 µM | 58.4 µM | 32.9 µM | 32.9 µM | 30 µM | 57.9 µM | 69.4 µM | 57.5 µM | – | – | – | – | – | – | – | – | – | – | –
5 | c1cc[c]([Sn]([O]c2cccc3cccnc23)([O]c2cccc3cccnc23)[c]2ccccc2)cc1 | 17.9 µM | – | 1.32 µM | 0.593 µM | 0.502 µM | 0.424 µM | – | – | – | 5.26 µM | – | 0.245 µM | 0.223 µM | – | – | 0.198 µM | – | – | – | 0.385 µM
6 | COC(=O)N/N=C(\C)C(CN(C)C)C(c1ccccc1)c1c(O)c2ccccc2oc1=O (stereo unspecified) | > 100 µM | > 100 µM | > 100 µM | > 100 µM | > 100 µM | > 100 µM | > 100 µM | > 100 µM | > 100 µM | – | – | – | – | – | – | – | – | – | – | –
7 | CCOC(=O)C1=C(C(=O)OCC)C2(c3ccccc3)N(O1)c1ccccc1C2(C)C (stereo unspecified) | > 100 µM | > 100 µM | > 100 µM | > 100 µM | > 100 µM | – | > 100 µM | > 100 µM | 67.1 µM | – | – | – | – | – | – | – | – | – | – | –
8 | C/C(O)=C(\N=O)C(=O)NCc1ccccc1 | > 100 µM | > 100 µM | > 100 µM | > 100 µM | > 100 µM | 36.6 µM | > 100 µM | > 100 µM | > 100 µM | – | – | – | – | – | – | – | – | – | – | –
9 | N#C/C(=C\c1ccccc1)C(NO)Nc1ccccc1 (stereo unspecified) | > 100 µM | > 100 µM | > 100 µM | > 100 µM | > 100 µM | – | > 100 µM | > 100 µM | > 100 µM | – | – | – | – | – | – | – | – | – | – | –
10 | CCC[CH2][Sn]([CH2]CCC)([O]C(=O)c1cccc(F)c1F)[O]C(=O)c1cccc(F)c1F | 4.5 µM | 2.8 µM | 2.56 µM | 2.87 µM | 2.46 µM | 1.74 µM | 17.5 µM | 2.39 µM | 2.92 µM | 2.94 µM | 1.48 µM | 1.52 µM | 1.22 µM | – | – | 0.519 µM | 5.37 µM | 1.15 µM | 1.56 µM | 1.27 µM
11 | NC(=S)N/N=C1/CN(c2ccc(Cl)c(Cl)c2)CC(=O)C1c1nc2ccccc2s1 (stereo unspecified) | > 100 µM | > 100 µM | > 100 µM | > 100 µM | > 100 µM | > 100 µM | > 100 µM | > 100 µM | > 100 µM | – | – | – | – | – | – | – | – | – | – | –
12 | CCN(CC)c1ccc(/C=N/NC(=O)CSc2nc3ccccc3c(=O)n2Cc2ccc(S(N)(=O)=O)cc2)c(O)c1 | > 100 µM | > 100 µM | > 100 µM | 4.97 µM | 5.44 µM | 10.5 µM | > 100 µM | – | > 100 µM | 0.961 µM | 2.1 µM | 1.57 µM | 0.886 µM | > 100 µM | > 100 µM | 0.387 µM | 1.57 µM | – | 2.89 µM | 1.26 µM
13 | Cc1ccc(O)c(NC2=C(Cl)C(=O)N(Cc3ccccc3)C2=O)c1 | 72.5 µM | > 100 µM | – | 40.7 µM | 36.8 µM | 45.7 µM | 91.3 µM | – | 41 µM | 25.4 µM | 46 µM | 21.1 µM | 17 µM | 38.1 µM | > 100 µM | 20.3 µM | 27.1 µM | – | 16 µM | –
14 | CCN(CC)c1ccc(N=Nc2ccc(-c3nc4cccn(C)c-4n3)cc2)cc1 | 24.7 µM | 52.4 µM | 25.8 µM | 16.8 µM | 27.1 µM | 6.42 µM | 25.6 µM | 28.3 µM | 41 µM | – | – | – | – | – | – | – | – | – | – | –
15 | CC1=C(C(=O)Nc2ccccc2)C(c2cc(Cl)cc(Cl)c2)C(C(=O)Nc2ccccc2)=C(C)N1 | 31.1 µM | 27.5 µM | 32.8 µM | 27.7 µM | 22.2 µM | 24.6 µM | 58.8 µM | 43.1 µM | 26.9 µM | – | – | – | – | – | – | – | – | – | – | –
16 | C1CC2=C(C1)C1=S(S2)SC2=C1CCC2 | – | > 100 µM | > 100 µM | > 100 µM | > 100 µM | > 100 µM | > 100 µM | 87.4 µM | > 100 µM | – | – | – | – | – | – | – | – | – | – | –
17 | Cc1cn2c(/C=N/N=C(N)N)c(-c3ccncc3)nc2s1 | 28.1 µM | 31.3 µM | – | 34.6 µM | 34.1 µM | 28.1 µM | 32.1 µM | – | 43.7 µM | 14.9 µM | 16.4 µM | 19.8 µM | 19 µM | > 100 µM | > 100 µM | 14.9 µM | 17.6 µM | – | 18.9 µM | –
18 | COC(=O)CC(=O)NCC1=CCC(=O)CC1 | > 100 µM | > 100 µM | > 100 µM | > 100 µM | > 100 µM | > 100 µM | > 100 µM | > 100 µM | > 100 µM | – | – | – | – | – | – | – | – | – | – | –
